Assay results published in ChEMBL document CHEMBL1148151, “Micromide and guamamide: cytotoxic alkaloids from a species of the marine cyanobacterium Symploca” (J Nat Prod, 2004).

Test system: KB
Assay: Cytotoxicity against human KB cells
Type: functional, cell-based

SMILES: CCCCCCCCCCCC(=O)OC(C)C(OC(C)=O)C(C)C(=O)NC[C@H](O)CC(=O)OC (some centres not stated) [GUAMAMIDE]
- IC50: 1200 nM

SMILES: CCC[C@H](CC(=O)N[C@@H](Cc1ccccc1)C(=O)N(C)[C@@H](C(=O)N[C@H](C(=O)N(C)[C@H](C(=O)N(C)[C@@H](Cc1ccccc1)C(=O)N(C)Cc1nccs1)[C@@H](C)CC)C(C)C)C(C)C)OC [MICROMIDE]
- IC50: 260 nM
